Results on three compounds are retold here after patent publication EP0796843B1, “1,25-dihydroxy-16,22,23-trisdehydro-cholecalciferol derivatives” (F. HOFFMANN-LA ROCHE AG, priority 1996, dated 1997).

pEC50, pIC50: −log10 of the molar value.

The test system of one data set is Sebaceous cells. Put plainly: Inhibition of sebaceous cell proliferation (cell count). Conditions: adult human sebaceous cells in vitro, amount necessary to inhibit proliferation by 50% vs vehicle control.
The nature of data set [1]: Calcium tolerance test in mice (highest tolerated dose, body weight). In kind it is in vivo. Conditions: daily subcutaneous administration for 4 consecutive days, dose resulting in zero weight gain during 5 day treatment period. The text has this:
Profound changes in calcium homeostasis strongly affect the weight development of mice.
Mice (25-30 g body weight) received daily subcutaneous administrations of the compound for 4 consecutive days. Body weight was registered just before and at the end of a […] treatment period. The "highest tolerated dose" (HTD) is the dose which results in zero weight gain during this treatment period.

The test system of the next data set is Human T-cell. As to the kind of experiment: Inhibition of T-cell proliferation (3H-thymidine, PHA-stimulated). Type of data set: cell-based. The protocol:
Mononuclear cells were isolated from venous blood of healthy donors by centrifugation of buffy coat leucocytes atop Ficoll-Paque. The lymphocytes (70-80% T-cells) were suspended in RPMI 1640 medium supplemented with 10% FCS and adjusted to 10^6 cells/ml. […] of this cell suspension were seeded into flat-bottom microtiter wells and stimulated with […] of PHA. Immediately after seeding, the test compounds listed below in Table V were added to yield final concentrations of between 1x10^-11 M -1 x 10^-6 M. All tests were run in the quadruplicates.
After 3 and 4 days, ^3H-thymidine (5 Ci/mmol) was added to wells at a concentration of […]. Cells were pulse-labeled for the last 6 hours of the growth period. Cells were then harvested on to a 96 well filter plate using a cell harvester. After drying at […] under vacuum for 20-30 minutes, 20 µl of scintillor were added and the radioactivity bound to the filters was counted. Values are expressed as percent controls (samples without test compounds). The concentration leading to 50% of control values is determined graphically and given as IC50 (inhibiting concentration) in Table V. TABLE V

The test system of another data set is HaCaT cell line. As to the kind of experiment: Inhibition of keratinocyte proliferation (3H-thymidine uptake). In kind it is cell-based, human. Conditions: HaCaT cells, 3H-thymidine incorporation after 6 days of culture, concentration leading to 50% of control values. On the technique in general: Uptake of a labelled nucleoside into DNA is a usual measure of proliferation.

The next data set concerns Human T-cells. Put plainly: Inhibition of γ-interferon release in PHA-stimulated T-cells (ELISA). Type of data set: cell-based. For orientation: ELISA stands for enzyme-linked immunosorbent assay.
In the next data set the test system is HL-60 cells. Put plainly: Induction of HL-60 cell differentiation (NBT reduction). In kind it is cell-based. Conditions: 3 days, concentration leading to 50% of maximal differentiation achieved with 100-1000 nM calcitriol, read-out: ED50 (the source's name).
Setting [2] is: human lymphocytes (70-80% T-cells) stimulated with PHA, 3H-thymidine after 3 and 4 days.
[3] abbreviates: human lymphocytes (70-80% T-cells) stimulated with PHA, IFN-g by ELISA on days 3 and 4.

Consider `C=C1/C(=C\C=C2/CCC[C@]3(C)C([C@H](C)C=C=CC(C)(C)O)=CC[C@@H]23)C[C@@H](O)C[C@@H]1O` [1,25-Dihydroxy-16,22R,23-triene-cholecalciferol], for which the ED50 with Sebaceous cells (listed as 1a,25-dihydroxy-16,22R,23-triene-cholecalciferol) turned out to be 1 nM. Moreover, the HTD in data set [1] is reported as 2.5 µg/kg. Besides, the values for the pIC50 in the data set with Human T-cell (setting [2]), with HaCaT cell line and in the data set on Human T-cells (setting [3]) were 9.26, 11.00 and 10.30, respectively. The pEC50 in the data set on HL-60 cells is 9.66.

With `C=C1/C(=C\C=C2/CCC[C@]3(C)C([C@H](C)C=C=CC(C)(C)O)=CC[C@@H]23)C[C@@H](O)C[C@@H]1O` [1,25-Dihydroxy-16,22S,23-triene-cholecalciferol], in the data set on Sebaceous cells (listed as 1a,25-dihydroxy-16,22S,23-triene-cholecalciferol), the ED50 worked out at 10 nM. Besides, the HTD in data set [1] came out at 50.0 µg/kg. Besides, the negative-log IC50 (pIC50) was 8.22 in the data set on Human T-cell (setting [2]), 7.40 in the data set on HaCaT cell line and 8.52 with Human T-cells (setting [3]). Moreover, the pEC50 with HL-60 cells is 8.32.

Compound `C=C1/C(=C\C=C2/CCC[C@]3(C)[C@@H]([C@H](C)CCCC(C)(C)O)CC[C@@H]23)C[C@@H](O)C[C@@H]1O` [1,25-Dihydroxy-cholecalciferol, reference compound] gave an ED50 in the data set on Sebaceous cells of 50 nM. Also, the HTD in data set [1] is 0.5 µg/kg. Besides, the negative-log IC50 (pIC50) in the data set with Human T-cell (Homo sapiens, T-cell) was 8.00; in the data set with HaCaT cell line (Homo sapiens), 7.26; in the data set with Human T-cells (Homo sapiens, T-cell), 9.10.

One may read the pIC50 as −log10 of the IC50, conventionally taken in molar units. Read a low pIC50 as a large IC50.
